{"source": "patent US11701361B2", "about": "“p110-delta inhibitors treat and prevent autoimmunity while sparing the ability to mount an immune response to exogenous immunogens” (THE REGENTS OF THE UNIVERSITY OF COLORADO, priority 2018, dated 2023)", "key": {"AKT": {"system": "AKT", "assay": "phosphorylated signaling intermediaries after BCR stimulation: AKT", "assay_type": "cell-based, mouse", "details": "all doses of inhibitor (15, 60, 490 nM), preincubation", "description": "Cells are then washed 2× in serum free IMDM, and stimulated with 5 μg/ml of F(ab′)2 rabbit anti-mouse anti-IgG (H&L; Invitrogen) or 10 μg/ml anti-CD3-biotin (BD Biosciences)+20 μg/ml streptavidin (Sigma-Aldrich) for 2 minutes. Signaling was stopped by addition of 20% PFA to a final concentration of 2%, incubated at 37° C. for 15 minutes and resuspended in 100% ice-cold MeOH (directly from −80° C.). Cells were then placed on ice for 30 minutes and placed at −20° C. for storage. For analysis, cells were stained with B220-BV786, CD4-BV711, CD8-BV421, and/or pAKT-Alexa Fluor 647 (BD Biosciences), pPLCγ-PE (BD Biosciences), pBTK-BV421 (BD Biosciences) pSyk/Zap70-PE (BD Biosciences) at room temperature for 1 hour. Cells were washed 3 times and samples were acquired in triplicate on an LSR Fortessa X-20 (BD) with analysis using FlowJo software."}, "NOD mice": {"system": "NOD mice", "assay": "antibody response of NOD mice to NP4Ova+Alum immunization on idelalisib chow", "assay_type": "in vivo, mouse", "description": "Diet dose (DD) is calculated by multiplying the single daily dose (SD) by the body weight of a mouse (BW) and dividing that by the daily food intake (FI) [DD=(SD×BW)/FI].\nFor VH125.NOD experiments animals are placed on control chow immediately after weaning.\nHEL conjugated to SRBCs was used to produce antigen for experiments with MD4 B cells. SRBCs (Colorado Serum Company) were stored in Alsever's solution at 4° C. SRBCs are washed 3 times in PBS prior to use. 1 ml of 50 mg/ml of the chemical crosslinker N-(3-Dimethylaminopropyl)-N-ethylcarbodiimide hydrochloride (Sigma-Aldrich) was added to 1 ml packed SRBCs and 15 ml of 5 mg/ml HEL (Sigma-Aldrich), mixed and rotated at room temperature for 45 minutes. Mice were immunized IP with 200 μl of a 5% HEL-SRBC in PBS. For NP4Ova-Alum immunizations, 10 mg/ml alum and 5 mg/ml NP4Ova were mixed to a final concentration of 250 μg/ml NP4Ova and 2.5 mg/ml alum and rotated for 3 hours at room temperature. […] Mice were then immunized with NP4Ova-alum IP in 200 μl/mouse, and responses were measured on day 7 and day 14 post-immunization.\nFor detection of IgM^a anti-Ars antibodies, microtiter plates were coated with 10 μg/ml Ars-BSA16 in PBS and blocked with 2 mg/ml BSA in PBS 0.05% Tween-20. For detection of IgM^a anti-HEL antibodies, microtiter plates were coated with 10 μg/ml HEL in PBS and blocked with 2 mg/ml BSA in PBS 0.05% Tween-20. For detection of total NP-specific IgM and IgG, microtiter plates were coated with 20 μg/ml NP27BSA and blocked with 2 mg/ml BSA in PBS 0.05% Tween-20. For detection of high affinity NP-specific IgM and IgG, microtiter plates were coated with 20 μg/ml NP2BSA and blocked with 2 mg/ml BSA in PBS 0.05% Tween-20. Serial dilutions of mouse serum in PBS were added and incubated overnight at 4° C. Ars/A1-derived IgM^a antibodies and MD4-derived HEL IgM^a antibodies were detected with biotinylated DS.1 anti-IgM^a (BD Pharmingen) in PBS, followed by Streptavidin-HRP (Thermo Fisher Scientific). For NP-specific IgM antibodies were detected using goat-anti-mouse IgM-HRP (SouthernBiotech). For NP-specific IgG antibodies were detected using goat-anti-mouse IgG-HRP (SouthernBiotech). Between all steps, plates were washed 3 times with PBS 0.05% Tween-20. The ELISA was developed with TMB single solution (Invitrogen) and the reaction was stopped with 1M HCl. OD was measured at 450 nm using a VERSAMax plate reader (Molecular Devices) and data analyzed with SoftMax Pro6 software.\nFor detection of IgM^a anti-Ars antibodies, microtiter plates were coated with 10 μg/ml Ars-BSA16 in PBS and blocked with 2 mg/ml BSA in PBS 0.05% Tween-20. For detection of IgM^a anti-HEL antibodies, microtiter plates were coated with 10 μg/ml HEL in PBS and blocked with 2 mg/ml BSA in PBS 0.05% Tween-20. For detection of total NP-specific IgM and IgG, microtiter plates were coated with 20 μg/ml NP27BSA and blocked with 2 mg/ml BSA in PBS 0.05% Tween-20. For detection of high affinity NP-specific IgM and IgG, microtiter plates were coated with 20 μg/ml NP2BSA and blocked with 2 mg/ml BSA in PBS 0.05% Tween-20. Plates were washed 3 times prior to use with PBS 0.05% Tween-20. RBC-depleted single-cell suspension of splenocytes in complete medium were added in two-fold serial dilutions starting at 1/100th of a spleen in the first well. Plates were incubated overnight at 37° C. Ars/A1-derived IgM^a antibodies and MD4-derived HEL IgM^a antibodies were detected with biotinylated DS.1 anti-IgM^a (BD Pharmingen) in PBS, followed by Streptavidin-AP (SouthernBiotech). For NP-specific IgM antibodies were detected using goat-anti-mouse IgM-AP (SouthernBiotech). For NP-specific IgG antibodies were detected using goat-anti-mouse IgG-AP (SouthernBiotech). Between all steps, plates were washed 3 times with PBS 0.05% Tween-20. The plates were developed by incubated with ELISPOT developing buffer ([…] 5-bromochloro-3-indolyl phosphate p-toluidine, […], 100 mM Tris, and 10 mM MgCl2, pH 9.5) for 1 hour. […]"}, "[1]": {"details": "0.9375 mg/kg chow, 14 days post-immunization, vs vehicle control"}, "[2]": {"details": "0.9375 mg/kg chow, day 14 post-immunization, vs vehicle control"}}}
{"smiles": "CC[C@H](Nc1ncnc2nc[nH]c12)c1nc2cccc(F)c2c(=O)n1-c1ccccc1", "note": "[idelalisib, 5-fluoro-3-phenyl-2-[(1S)-1-(7H-purin-6-ylamino)propyl]-4(3H)-quinazolinone]", "values": [{"measurement": "phosphorylation of AKT", "setting": "AKT", "result": "significantly reduced"}, {"measurement": "anti-NP IgM response in the spleen", "setting": "NOD mice; 0.9375 mg/kg chow for 4 weeks, 14 days post-immunization, vs vehicle control", "result": "not different"}, {"measurement": "B cell numbers in the spleens", "setting": "NOD mice; 0.9375 mg/kg chow vs vehicle control", "result": "no difference"}, {"measurement": "high affinity IgG anti-NP ASCs/spleen", "setting": "NOD mice; [1]", "result": "no observed difference"}, {"measurement": "number of high-affinity IgM anti-NP ASCs/spleen", "setting": "NOD mice; [1]", "result": "equivalent"}, {"measurement": "number of total anti-NP IgM antibody secreting cells (ASCs) per spleen", "setting": "NOD mice; [1]", "result": "equivalent"}, {"measurement": "total IgG anti-NP ASCs/spleen", "setting": "NOD mice; [1]", "result": "no observed difference"}, {"measurement": "levels of IgG anti-NP found in the periphery", "setting": "NOD mice; [2]", "result": "equivalent"}, {"measurement": "levels of IgM anti-NP found in the periphery", "setting": "NOD mice; [2]", "result": "equivalent"}]}
